By EC50 is commonly meant the concentration needed to bring the measured effect to its halfway point. Broadly, the IC50 is the concentration that inhibits the measured activity by half. Read a high IC50 as lower potency. For orientation: inhibition means the drop in the measured response relative to a control, in per cent.

The target in one data set is mGluR2 (Homo sapiens (Human), UniProt Q14416). As to the kind of experiment: In vitro activity test for mGluR2 (HDB Fluo-8 calcium fluorescence, HEK/mGluR2 cell line). Type of data set: cell-based. The text has this: Experimental materials: HEK/mGluR2 cell line (human […] transfected HEK cell line), DMEM (FBS) medium, positive control LY487379 (purchased from sigma; CAS: to 352317-17-1)
Chain of mGluR2 (Q14416 19-872): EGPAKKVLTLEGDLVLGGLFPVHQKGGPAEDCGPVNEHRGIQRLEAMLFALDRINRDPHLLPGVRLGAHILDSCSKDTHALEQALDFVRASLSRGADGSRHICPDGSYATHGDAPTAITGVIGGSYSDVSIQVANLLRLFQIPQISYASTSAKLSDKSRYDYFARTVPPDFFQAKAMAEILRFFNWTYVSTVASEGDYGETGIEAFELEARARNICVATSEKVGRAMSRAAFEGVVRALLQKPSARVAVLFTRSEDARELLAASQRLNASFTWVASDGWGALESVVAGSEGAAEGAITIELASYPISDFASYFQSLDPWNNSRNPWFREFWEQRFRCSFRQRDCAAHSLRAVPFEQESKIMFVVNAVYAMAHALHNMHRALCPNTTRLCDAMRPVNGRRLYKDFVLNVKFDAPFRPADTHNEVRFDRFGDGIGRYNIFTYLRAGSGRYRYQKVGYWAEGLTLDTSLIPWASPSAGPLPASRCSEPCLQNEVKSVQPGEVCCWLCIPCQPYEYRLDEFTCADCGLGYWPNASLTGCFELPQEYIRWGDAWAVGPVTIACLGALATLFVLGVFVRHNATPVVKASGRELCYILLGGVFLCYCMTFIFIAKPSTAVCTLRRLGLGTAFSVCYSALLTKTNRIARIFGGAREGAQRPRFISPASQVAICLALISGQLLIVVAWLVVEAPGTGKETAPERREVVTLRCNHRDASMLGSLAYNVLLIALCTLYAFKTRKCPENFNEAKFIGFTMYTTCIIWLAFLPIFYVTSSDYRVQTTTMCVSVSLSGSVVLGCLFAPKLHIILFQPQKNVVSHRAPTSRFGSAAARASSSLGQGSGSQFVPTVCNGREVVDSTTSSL
Experimental instrument: FLIPR Tetra real-time fluorescence imaging analysis system
Experimental method: HDB Fluo-8 calcium fluorescence detection method
Experimental principle: HDB Fluo-8 calcium ion fluorescence detection method is a fast, simple and reliable fluorescence detection method of intracellular calcium concentration changes. The Fluo 8-AM fluorescent dye is an acetyl methyl ester derivative of Fluo 8 which can easily penetrate into the cell membrane by culture. The fluorescent dye in the cell will be hydrolyzed by intracellular esterase, the resulting Fluo 8 as a polar molecule, cannot easily pass through the lipid bimolecular membrane, and will be retained in the cell, and combine with calcium (Ca^2+) to produce fluoresces.
Cells expressing GPCR receptor protein (mGluR2) were first calibrated with a calcium ion sensitive fluorescent probe and then stimulated with the compound. After stimulation, the receptor activates the calcium ion mobilization, and the fluorescent probe captures the calcium ion to induce the fluorescence signal. The signal can be read by a fluoroscopy plate. The fluorescent plate reader contains a sample addition for compound addition, thus enabling the change of the fluorescence value of the compound be read in real time.

In a further data set the test system is ICR mice. As to the kind of experiment: Mouse swimming depression test. Type of data set: in vivo. As to conditions: for non-movement time (%) Mean ± SEM: orally, 1 hour before test. As for the experimental part: Experiment objectives: to observe the effect of the test compound on the depressive status of mice
Experimental animals: ICR mice, 20-28 g, both male and female
Experimental equipment: plexiglass tube: cylindrical, 25 cm high, 15 cm inner diameter
Sample treatment: The test compounds were ground with 1% CMC (sodium carboxymethyl cellulose) to prepare a homogeneous solution. In vivo dose was 5 mg/kg, 10 mg/kg and 20 mg/kg, the compound was orally administrated at 0.1 ml/10 g volume/body weight. Positive control drugs (amitriptyline and fluoxetine) were dissolved with 0.9% saline, in vivo dose was 10 mg/kg, intraperitoneal injected at 0.1 ml/10 g volume/body weight. (Note: mice were given the compound after fasted for 8 hours without water-fasted.)
Experimental principle: The mouse is placed in a limited space which can not escape to swim, thus inducing animals to non-movement state which reflects the animal's desperate behavior.
Experimental Methods: mice were grouped randomly, 15 minutes swimming depression was modeled at the first day, and equivalent mice were selected. The second day of the test, 1 hour after the animals were orally administered the compound (0.5 hours after intraperitoneal injection) and then the animals were put in water to record the non-movement time in the later 4 min of 6 min.

The next data set has as its system C57BL/6 mice. As to the kind of experiment: Mouse open field experiment. As to conditions: for Central area dwell time (s) Mean ± SEM / Central area traveling distance percentage (%) Mean ± SEM / Total moving distance (cm) Mean ± SEM: 30 mg/kg i.p., 1 hour before, 30-minute test. Type of data set: in vivo. As for the experimental part:
Experiment objectives: to observe the anti-anxiety effect of the test compound on the mice by open field experiment.
Experimental animals: male C57BL/6 mice, 10 weeks old, purchased from Beijing Huafukang Biotechnology Co., Ltd.
Animal rearing: The temperature in the animal room was maintained at 20-25° C., the humidity was maintained at 40-70%, and the photoperiod was 12 hours light and 12 hours dark. During feeding, the mice were housed in standard mouse cages, with colored labels on each cage clearly indicating the item number, and the basic information such as the responsible person, group, animal number and animal gender. All animals were given free access to pure water and standard certified rodent feed. Before the start of the experiment, the experimental animals were adapted to the feeding environment for at least one week.
The compound to be tested, intraperitoneally administered, 30 mg/kg.
Experimental principle: Based on the instincts of rodents tending to avoid light and fear of exploring open fields. When the experimental animals were first placed in the open field, the central area was a potential threat to the animals, while the peripheral area was relatively safe, and rats and mice were more likely to move along the perimeter of the field. Therefore, if the animal is of high anxiety level, it tends to stay in the peripheral area. Conversely, the number and time of exploration in the central area will increase.
Experimental grouping and administration: Experimental animals were randomly divided into 5 groups as follows:
During the 30-minute test period, the total distance traveled by the experimental animals, the central area dwell time, and the percentage of the central area travel distance will be detected and recorded.

Another data set addresses hERG potassium channel (Homo sapiens (Human), UniProt Q12809). The data set is described as follows: hERG potassium channel toxicity assay (hERG patch clamp). Type of data set: cell-based. As for the experimental part:
Experimental method: hERG patch clamp detection method
Experimental procedure: Compound preparation: the stock solution of a compound was diluted with extracellular fluid, 2 μL of the compound stock solution was added to 998 μL extracellular fluid, and then serially diluted 5 times in an extracellular fluid containing 0.2% DMSO to obtain the final concentration to be tested.
(In general: hERG is a cardiac potassium channel; its block is linked to QT prolongation.)

Chain of hERG potassium channel (Q12809 whole entry): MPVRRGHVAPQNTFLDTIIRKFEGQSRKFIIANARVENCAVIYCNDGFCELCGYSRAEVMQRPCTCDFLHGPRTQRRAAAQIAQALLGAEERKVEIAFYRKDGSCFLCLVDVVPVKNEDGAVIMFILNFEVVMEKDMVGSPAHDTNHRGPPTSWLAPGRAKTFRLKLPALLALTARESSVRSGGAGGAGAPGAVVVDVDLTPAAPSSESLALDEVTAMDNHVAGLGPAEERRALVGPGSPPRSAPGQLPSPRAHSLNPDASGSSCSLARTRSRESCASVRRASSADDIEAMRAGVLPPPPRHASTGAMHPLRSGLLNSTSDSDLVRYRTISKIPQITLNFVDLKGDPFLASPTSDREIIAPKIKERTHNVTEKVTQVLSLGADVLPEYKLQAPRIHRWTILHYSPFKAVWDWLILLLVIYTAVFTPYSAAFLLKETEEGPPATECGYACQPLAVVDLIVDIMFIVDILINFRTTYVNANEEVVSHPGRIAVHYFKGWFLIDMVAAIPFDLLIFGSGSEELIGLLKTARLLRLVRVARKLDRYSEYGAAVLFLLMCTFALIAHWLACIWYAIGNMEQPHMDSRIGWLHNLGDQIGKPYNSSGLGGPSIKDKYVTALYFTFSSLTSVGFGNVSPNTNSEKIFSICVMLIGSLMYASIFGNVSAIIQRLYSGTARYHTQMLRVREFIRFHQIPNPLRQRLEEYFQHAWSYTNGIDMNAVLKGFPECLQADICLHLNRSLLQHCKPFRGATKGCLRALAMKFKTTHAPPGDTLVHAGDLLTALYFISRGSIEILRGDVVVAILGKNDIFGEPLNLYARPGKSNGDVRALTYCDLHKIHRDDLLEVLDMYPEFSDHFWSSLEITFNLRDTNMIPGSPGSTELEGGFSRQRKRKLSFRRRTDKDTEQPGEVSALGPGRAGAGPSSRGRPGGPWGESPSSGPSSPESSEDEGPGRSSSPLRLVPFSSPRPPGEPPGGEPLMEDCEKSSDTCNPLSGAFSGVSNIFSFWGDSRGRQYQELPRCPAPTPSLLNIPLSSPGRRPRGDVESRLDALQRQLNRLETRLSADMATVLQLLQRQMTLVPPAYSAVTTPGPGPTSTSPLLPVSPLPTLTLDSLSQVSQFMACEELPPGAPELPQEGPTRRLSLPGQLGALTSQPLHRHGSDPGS

As for `COC(=O)c1ccc(-c2ccn3c(CC4CC4(F)F)nnc3c2Cl)c(F)c1` (centres unmarked) [Compound 45, Methyl 4-(8-Chloro-3-((2,2-difluorocyclopropyl)methyl)-[1,2,4]triazole[4,3-a]pyridin-7-yl)-3-fluorobenzoate], the EC50 at mGluR2 amounted to 87.9 nM. In the data set with ICR mice (5 mg/kg), the “non-movement time (%) Mean ± SEM” value came out at 63.99 ± 11.00%. Further, in the data set with ICR mice (10 mg/kg), the “non-movement time (%) Mean ± SEM” value stood at 34.88 ± 6.57%. For the same molecule, in the data set with ICR mice (20 mg/kg), the “non-movement time (%) Mean ± SEM” value came out at 56.29 ± 17.56%. Moreover, in the data set with ICR mice (mouse, in vivo), the “"no movement time" of swimming in mice (in words)” value is “effectively shorten” and the antidepressant effect entry is reported as “significant antidepressant effect”. For the same molecule, in the data set with C57BL/6 mice, the “Central area dwell time (s) Mean ± SEM” value was determined as 110 ± 13.0 s, the “Central area traveling distance percentage (%) Mean ± SEM” value is reported as 19.39 ± 1.63 % and the “Total moving distance (cm) Mean ± SEM” value amounted to 5043.2 ± 457.5 cm. The “central region's range of motion” value in the data set with C57BL/6 mice (dosage of 30 mg/kg) is recorded as “significantly increase”.
Consider `FC1(F)CC1Cc1nnc2c(Cl)c(-c3ccc4c(c3)OCO4)ccn12` (centres unmarked) [Compound 50, 7-(Benzo[d][1,3]dioxol-5-yl)-8-chloro-3-((2,2-difluorocyclopropyl)methyl)-[1,2,4]triazole [4,3-a]pyridine], for which the EC50 at mGluR2 was 62.3 nM. In the data set with ICR mice (5 mg/kg), the “non-movement time (%) Mean ± SEM” value came to 84.06 ± 10.65%. For the same molecule, the “non-movement time (%) Mean ± SEM” value in the data set on ICR mice (10 mg/kg) came out at 52.10 ± 15.86%. The “non-movement time (%) Mean ± SEM” value in the data set on ICR mice (20 mg/kg) was determined as 57.08 ± 17.80%. Besides, in the data set with C57BL/6 mice, the “Central area dwell time (s) Mean ± SEM” value is 81.1 ± 10.2 s, the “Central area traveling distance percentage (%) Mean ± SEM” value was 13.91 ± 0.96% and the “Total moving distance (cm) Mean ± SEM” value was found to be 4407.2 ± 390.5 cm.
As for `FC1(F)CC1Cc1nnc2cc(-c3ccc4c(c3)OCO4)ccn12` (centres unmarked) [Compound 35, 7-(Benzo[d][1,3]dioxol-5-yl)-3-((2,2-difluorocyclopropyl)methyl)-[1,2,4]triazole [4,3-a]pyridine], the concentration giving a half-maximal response (EC50) at mGluR2 turned out to be 108 nM. Moreover, the half-maximal inhibitory concentration (IC50) against hERG potassium channel (hERG patch clamp) is more than 40000 nM. The inhibition at 40 µM on hERG potassium channel (human, hERG, at maximum concentration 40 μM, read-out: Inhibition rate (%)) is 40%. In the data set with C57BL/6 mice, the “Central area dwell time (s) Mean ± SEM” value is reported as 102.6 ± 20.8 s, the “Central area traveling distance percentage (%) Mean ± SEM” value is 15.41 ± 1.99% and the “Total moving distance (cm) Mean ± SEM” value was determined as 3491.2 ± 650.6 cm.
